Measured values as given in patent US12404283B2, “c-MYC mRNA translation modulators and uses thereof in the treatment of cancer” (Anima Biotech Inc., priority 2022, dated 2025).

test system: c-Myc; assay: c-Myc immunofluorescence assay; type: cell-based, human; details: A549 cells, 24 hours treatment, anti-c-Myc immunofluorescence
How it was run: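 High-content imaging (20×) of PFA-fixed A549 cells immunostained for c-Myc with DAPI nuclei, after 24 h compound treatment at increasing concentrations. Per-cell c-Myc signal in identified cell regions was plotted against dose and fitted by logistic regression to give EC50.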

Row | Compound | Myc Efficacy (−LogEC50)
1 | CNC(=O)c1ccc(-c2cn3c(n2)sc2cc(C(=O)N[C@@H]4CCCN(C)C4)ccc23)cc1 [compound 301, (R)-2-(4-(methylcarbamoyl)phenyl)-N-(1-methylpiperidin-3-yl)benzo[d]imidazo[2,1-b]thiazole-7-carboxamide] | + (+ >3 and <5)
2 | CNC(=O)c1ccc(-c2cn3c(n2)sc2cc(C(=O)NCC[C@@H]4CCCN4C)ccc23)cc1 [compound 303, (S)-2-(4-(methylcarbamoyl)phenyl)-N-(2-(1-methylpyrrolidin-2-yl)ethyl)benzo[d]imidazo [2,1-b]thiazole-7-carboxamide] | + (+ >3 and <5)
3 | O=C(NCCCN1CCCCC1)c1ccc2c(c1)sc1nc(-c3ccncc3)cn12 [compound 306, N-(3-(piperidin-1-yl)propyl)-2-(pyridin-4-yl)benzo[d]imidazo[2,1-b]thiazole-7-carboxamide] | ++ (++ ≥5 and <6)
4 | CCN(CC)CCCNC(=O)c1ccc2c(c1)sc1nc(-c3ccc(N4CCOCC4)cc3)cn12 [compound 307, N-(3-(diethylamino)propyl)-2-(4-morpholinophenyl)benzo[d] imidazo[2,1-b]thiazole-7-carboxamide] | ++ (++ ≥5 and <6)
5 | CCN(CC)CCCNC(=O)c1ccc2c(c1)sc1nc(-c3cccc(C4COC4)c3)cn12 [compound 308, N-(3-(diethylamino)propyl)-2-(3-(oxetan-3-yl)phenyl)benzo[d]imidazo [2,1-b]thiazole-7-carboxamide] | + (+ >3 and <5)
6 | CNC(=O)c1ccc(-c2cn3c(n2)sc2cc(C(=O)NCCCN4CCC(F)CC4)ccc23)cc1 [compound 309, N-(3-(4-fluoropiperidin-1-yl)propyl)-2-(4-(methylcarbamoyl)phenyl) benzo[d]imidazo[2,1-b]thiazole-7-carboxamide] | ++ (++ ≥5 and <6)
7 | CNC(=O)c1ccc(-c2cn3c(n2)sc2cc(C(=O)NCCCN4CCCC4)ccc23)cc1 [compound 310, 2-(4-(methylcarbamoyl)phenyl)-N-(3-(pyrrolidin-1-yl)propyl)benzo[d]imidazo [2,1-b]thiazole-7-carboxamide] | + (+ >3 and <5)
8 | CNC(=O)c1ccc(-c2cn3c(n2)sc2cc(NC(=O)CCCN4CCCCC4)ccc23)cc1 [compound 312, N-methyl-4-(7-(4-(piperidin-1-yl)butanamido)benzo[d]imidazo[2,1-b]thiazol-2-yl)benzamide] | ++ (++ ≥5 and <6)
9 | CCN(CC)CCCNC(=O)c1ccc2c(c1)sc1nc(-c3ccc(C4CCOCC4)cc3)cn12 [compound 314, N-(3-(diethylamino)propyl)-2-(4-(tetrahydro-2H-pyran-4-yl)phenyl)benzo[d]imidazo [2,1-b]thiazole-7-carboxamide] | + (+ >3 and <5)
10 | O=C(NCCCN1CCCCC1)c1ccc2c(c1)sc1nc(-c3ccc(C4COC4)cc3)cn12 [compound 315, 2-(4-(oxetan-3-yl)phenyl)-N-(3-(piperidin-1-yl)propyl)benzo[d]imidazo [2,1-b]thiazole-7-carboxamide] | ++ (++ ≥5 and <6)
11 | CNC(=O)c1ccc(-c2cn3c(n2)sc2cc(C(=O)NCCCN4CCCCC4)cnc23)cc1 [compound 317, 2-(4-(methylcarbamoyl)phenyl)-N-(3-(piperidin-1-yl)propyl)imidazo[2′,1′:2,3] thiazolo[4,5-b]pyridine-7-carboxamide] | + (+ >3 and <5)
12 | CCN(CC)CCCNC(=O)c1ccc2c(c1)sc1nc(-c3ccc(C4(N)CC4)cc3)cn12 [compound 318, 2-(4-(1-aminocyclopropyl)phenyl)-N-(3-(diethylamino)propyl)benzo [d]imidazo[2,1-b]thiazole-7-carboxamide] | ++ (++ ≥5 and <6)
13 | CNC(=O)c1ccc(-c2nc3sc4cc(C(=O)NCCCN5CCCCC5)ccc4n3n2)cc1 [compound 319, 2-(4-(methylcarbamoyl)phenyl)-N-(3-(piperidin-1-yl)propyl)benzo[4,5]thiazolo [3,2-b][1,2,4]triazole-6-carboxamide] | ++ (++ ≥5 and <6)
14 | CNC(=O)c1ccc(-c2cn3c(n2)sc2cc(C(=O)NCCCN4CCC(F)CC4)ccc23)c(F)c1 [compound 320, 2-(2-fluoro-4-(methylcarbamoyl)phenyl)-N-(3-(4-fluoropiperidin-1-yl)propyl)benzo[d]imidazo [2,1-b]thiazole-7-carboxamide] | +++ (+++ ≥6)
15 | CNC(=O)c1ccc(-c2cn3c(n2)sc2cc(C(=O)NCCCN4CCCC4)ccc23)c(F)c1 [compound 321, 2-(2-fluoro-4-(methylcarbamoyl)phenyl)-N-(3-(pyrrolidin-1-yl)propyl)benzo[d]imidazo [2,1-b]thiazole-7-carboxamide] | ++ (++ ≥5 and <6)
16 | C#CCCC1(CCNC(=O)c2ccc(-c3cn4c(n3)sc3cc(C(=O)NCCCN(CC)CC)ccc34)cc2)N=N1 [compound 322, 2-(4-((2-(3-(but-3-yn-1-yl)-3H-diazirin-3-yl)ethyl)carbamoyl)phenyl)-N-(3-(diethylamino)propyl) benzo[d]imidazo[2,1-b] thiazole-7-carboxamide] | + (+ >3 and <5)
17 | C#CCCC1(CCN(CC)CCCNC(=O)c2ccc3c(c2)sc2nc(-c4ccc(C(=O)NC)cc4)cn23)N=N1 [compound 323, N-(3-((2-(3-(but-3-yn-1-yl)-3H-diazirin-3-yl)ethyl)(ethyl)amino)propyl)-2-(4-(methylcarbamoyl)phenyl) benzo[d]imidazo[2,1-b]thiazole-7-carboxamide] | +++ (+++ ≥6)
18 | C#CCCC1(CCN2CC[C@H](CNC(=O)c3ccc4c(c3)sc3nc(-c5ccc(C)cc5)cn34)C2)N=N1 [compound 324, (R)-N-((1-(2-(3-(but-3-yn-1-yl)-3H-diazirin-3-yl)ethyl)pyrrolidin-3-yl)methyl)-2-(p-tolyl)benzo[d]imidazo[2,1-b]thiazole-7-carboxamide] | ++ (++ ≥5 and <6)
19 | C#CCCC1(CCN2CC[C@@H](CNC(=O)c3ccc4c(c3)sc3nc(-c5ccc(C)cc5)cn34)C2)N=N1 [compound 325, (S)-N-((1-(2-(3-(but-3-yn-1-yl)-3H-diazirin-3-yl)ethyl)pyrrolidin-3-yl)methyl)-2-(p-tolyl)benzo[d]imidazo[2,1-b]thiazole-7-carboxamide] | ++ (++ ≥5 and <6)
20 | C#CCCC1(CCOc2ccccc2-c2cn3c(n2)sc2cc(C(=O)NCCCN4CCCCC4)ccc23)N=N1 [compound 326, 2-(2-(2-(3-(but-3-yn-1-yl)-3H-diazirin-3-yl)ethoxy)phenyl)-N-(3-(piperidin-1-yl)propyl)benzo[d]imidazo [2,1-b]thiazole-7-carboxamide] | ++ (++ ≥5 and <6)
21 | C#CCCC1(CCOc2cccc(-c3cn4c(n3)sc3cc(C(=O)NCCCN(CC)CC)ccc34)c2)N=N1 [compound 327, 2-(3-(2-(3-(but-3-yn-1-yl)-3H-diazirin-3-yl)ethoxy)phenyl)-N-(3-(diethylamino)propyl)benzo [d]imidazo[2,1-b]thiazole-7-carboxamide] | + (+ >3 and <5)
22 | CCN(CC)CCCNC(=O)c1ccc2c(c1)sc1nc(-c3ccc(C(=O)NC)cc3)nn12 [compound 328, N-(3-(diethylamino)propyl)-2-(4-(methylcarbamoyl)phenyl) benzo[4,5]thiazolo[3,2-b][1,2,4]triazole-6-carboxamide] | ++ (++ ≥5 and <6)
